Read-outs that look alike come from different tables or passages of the source. Blank lines part the entries; values can stand above or below the compound they belong to.
Assays:
[1] = test system: Mycosphaerella graminicola; Anamorph: Septoria tritici; assay: Fungicidal activity: Leaf Blotch of Wheat (SEPTTR), wheat plants variety Yuma; assay type: in vivo; conditions: Zymoseptoria tritici
Experimental: Evaluation of Fungicidal Activity: Leaf Blotch of Wheat (Mycosphaerella graminicola; Anamorph: Septoria tritici; Bayer Code […]) Wheat plants (variety Yuma) were grown from seed in a greenhouse in 50% mineral soil/50% soil-less Metro mix until the first leaf was fully emerged, with 7-10 seedlings per pot. These plants were inoculated with an aqueous spore suspension of Septoria tritici either prior to or after fungicide treatments. After inoculation the plants were kept in 100% relative humidity (one day in a dark dew chamber followed by two to three days in a lighted dew chamber) to permit spores to germinate and infect the leaf. The plants were then transferred to a greenhouse at 20° C. for disease to develop.

[2] = test system: Puccinia triticina. Synonym: Puccinia recondite f. sp. tritici; assay: Fungicidal activity: Wheat Brown Rust (PUCCRT), wheat plants variety Yuma; assay type: in vivo; set-up: key to PUCCRT 3DC Disease Control: A: 50-100; B: More than 0-Less than 50; C: Not Tested; D: No activity noticed in this bioassay; conditions: for pest or weed control at 100 ppm: Puccinia triticina
Experimental: Evaluation of Fungicidal Activity: Wheat Brown Rust (Puccinia triticina. Synonym: Puccinia recondite f. sp. tritici; Bayer Code PUCCRT) Wheat plants (variety Yuma) were grown from seed in a greenhouse in 50% mineral soil/50% soil-less Metro mix until the first leaf was fully emerged, with 7-10 seedlings per pot. These plants were inoculated with an aqueous spore suspension of Puccinia recondite f. sp. tritici either prior to or after fungicide treatments. After inoculation the plants were kept in 100% relative humidity overnight to permit spores to germinate and infect the leaf. The plants were then transferred to a greenhouse set at 24 C for disease to develop.

[3] = 24 h, 1 Day Protectant, read-out: SEPTTR 1DP Disease Control
[4] = 72 h, 3 Day Curative, read-out: SEPTTR 3DC Disease Control
[5] = 24 h, 1 Day Protectant, read-out: PUCCRT 1DP Disease Control
[6] = 72 h, 3 Day Curative, read-out: PUCCRT 3DC Disease Control

melting point: 222 to 224 °C
Compound: COc1ccnc(C(=O)N[C@H]2COC(=O)[C@H](CCn3cc(-c4ccccc4)nn3)[C@@H](OC(=O)C(C)C)[C@H](C)OC2=O)c1O [Compound 55]
pest or weed control at 100 ppm [1, 3]: 50 to 100% | pest or weed control at 100 ppm [1, 4]: 0 to 50% | pest or weed control at 100 ppm [2, 5]: 50 to 100% | pest or weed control at 100 ppm [2, 6]: 0 to 50%

melting point: 184 to 185 °C
Compound: COc1ccnc(C(=O)N[C@H]2COC(=O)[C@H](Cc3ccc(F)cc3F)[C@@H](OC(=O)C(C)C)[C@H](C)OC2=O)c1O [Compound 10]
pest or weed control at 100 ppm [1, 3]: 50 to 100% | pest or weed control at 100 ppm [1, 4]: 0 to 50% | pest or weed control at 100 ppm [2, 5]: 50 to 100% | pest or weed control at 100 ppm [2, 6]: 50 to 100%

melting point: 161 to 165 °C
Compound: C=CC[C@H]1C(=O)OC[C@H](NC(=O)c2nccc(OC)c2O)C(=O)O[C@@H](C)[C@@H]1OC(=O)C(C)C [Compound 17]
pest or weed control at 100 ppm [1, 3]: 50 to 100% | pest or weed control at 100 ppm [1, 4]: 0 to 50% | pest or weed control at 100 ppm [2, 5]: 50 to 100% | pest or weed control at 100 ppm [2, 6]: 50 to 100%

melting point: 148 to 155 °C
Compound: COc1ccnc(C(=O)N[C@H]2COC(=O)[C@H](Cc3cccnc3)[C@@H](OC(=O)C(C)C)[C@H](C)OC2=O)c1O [Compound 2]
pest or weed control at 100 ppm [1, 3]: 50 to 100% | pest or weed control at 100 ppm [1, 4]: 50 to 100% | pest or weed control at 100 ppm [2, 5]: 50 to 100% | pest or weed control at 100 ppm [2, 6]: 50 to 100%

The next lines start with the compound.

Compound: COc1ccnc(C(=O)N[C@H]2COC(=O)[C@H](CCOC(=O)c3ccc4c(c3)OCO4)[C@@H](OC(=O)C(C)C)[C@H](C)OC2=O)c1O [Compound 39]
pest or weed control at 100 ppm [1, 3]: 50 to 100% | pest or weed control at 100 ppm [1, 4]: 0 to 50% | melting point: 159 to 161 °C | pest or weed control at 100 ppm [2, 5]: 50 to 100% | pest or weed control at 100 ppm [2, 6]: 0 to 50%

Compound: COc1ccnc(C(=O)N[C@H]2COC(=O)[C@H](Cc3cccc(C(F)(F)F)c3)[C@@H](OC(=O)C(C)C)[C@H](C)OC2=O)c1OCOC(=O)C(C)C [Compound 24]
pest or weed control at 100 ppm [1, 3]: 50 to 100% | pest or weed control at 100 ppm [1, 4]: 0 to 50% | melting point: 100 to 103 °C | pest or weed control at 100 ppm [2, 5]: 50 to 100% | pest or weed control at 100 ppm [2, 6]: 50 to 100%

Compound: COc1ccnc(C(=O)N[C@H]2COC(=O)[C@H](Cc3cccc(-c4ccccc4)c3)[C@@H](OC(=O)C(C)C)[C@H](C)OC2=O)c1OCOC(=O)C(C)C [Compound 25]
pest or weed control at 100 ppm [1, 3]: 50 to 100% | pest or weed control at 100 ppm [1, 4]: 0 to 50% | melting point: 55 to 68 °C | pest or weed control at 100 ppm [2, 5]: 50 to 100% | pest or weed control at 100 ppm [2, 6]: 50 to 100%

Compound: COc1ccnc(C(=O)N[C@H]2COC(=O)[C@H](Cc3cccnc3)[C@@H](OC(=O)C(C)C)[C@H](C)OC2=O)c1OC(C)=O [Compound 70]
pest or weed control at 100 ppm [1, 3]: 0 to 50% | pest or weed control at 100 ppm [1, 4]: 0 to 50% | melting point: 151 to 160 °C | pest or weed control at 100 ppm [2, 5]: 50 to 100% | pest or weed control at 100 ppm [2, 6]: 50 to 100%

Compound: COc1ccnc(C(=O)N[C@H]2COC(=O)[C@H](CCOC(=O)c3ccccc3)[C@@H](OC(=O)C(C)C)[C@H](C)OC2=O)c1OCOC(=O)C(C)C [Compound 19, 2-((3S,7R,8R,9S)-8-(isobutyryloxy)-3-(3-(isobutyryloxymethoxy)-4-methoxypicolinamido)-9-methyl-2,6-dioxo-1,5-dioxonan-7-yl)ethyl benzoate]
pest or weed control at 100 ppm [1, 3]: 50 to 100% | pest or weed control at 100 ppm [1, 4]: 0 to 50% | melting point: 48 to 50 °C | pest or weed control at 100 ppm [2, 5]: 50 to 100% | pest or weed control at 100 ppm [2, 6]: 50 to 100%

Compound: COc1ccnc(C(=O)N[C@H]2COC(=O)[C@H](Cc3ccc(C(F)(F)F)cc3)[C@@H](OC(=O)C(C)C)[C@H](C)OC2=O)c1O [Compound 6]
pest or weed control at 100 ppm [1, 3]: 50 to 100% | pest or weed control at 100 ppm [1, 4]: 0 to 50% | melting point: 222 to 226 °C | PUCCRT 3DC Disease Control ([2]; 100 ppm, 3 Day Curative): D | pest or weed control at 100 ppm [2, 5]: 50 to 100%

Compound: COc1ccnc(C(=O)N[C@H]2COC(=O)[C@H](CC(=O)OC(C)(C)C)[C@@H](OC(=O)C(C)C)[C@H](C)OC2=O)c1O [Compound 47, (3S,6S,7R,8R)-8-(2-tert-butoxy-2-oxoethyl)-3-(3-hydroxy-4-methoxypicolinamido)-6-methyl-4,9-dioxo-1,5-dioxonan-7-yl isobutyrate]
pest or weed control at 100 ppm [1, 3]: 50 to 100% | pest or weed control at 100 ppm [1, 4]: 50 to 100% | melting point: 192 to 194 °C | pest or weed control at 100 ppm [2, 5]: 50 to 100% | pest or weed control at 100 ppm [2, 6]: 50 to 100%
